# Laboratory results reported in patent publication US4940702A, “Cephem compounds” (Beecham Group p.l.c., priority 1985, dated 1990).
# Experiments:
# Test in all cases: Minimum Inhibitory Concentration (MIC) by serial dilution in nutrient agar
# Type in all cases: cell-based
# E. coli DC 0 = details: Escherichia coli, DC0, 10^4 colony forming units, overnight at 37° C.
# Experimental: (§1) Minimum Inhibitory Concentration (MIC) values of compounds of the invention against E coli DC 0, K pneumoniae T767, and P aeruginosa NCTC 10662 were determined by serial dilution in a nutrient agar (from Oxoid Ltd., Basingstoke, England). The plates were inoculated with 10^4 colony forming units and incubated overnight at 37° C. The MIC values recorded in Table 1 were the lowest concentration of antibiotic to inhibit growth. Comparative data for 7α-formamido-3-(pyridiniummethyl)-7β-(thien-2-yl-acetamido)-ceph-3-em-4-carboxylate (Compound A), disclosed in European Patent Application No. 82303821.1 (Publication Number 0 071 395), are also given.
# K. pneumoniae T767 = details: Klebsiella pneumoniae, 10^4 colony forming units, overnight at 37° C.
# Experimental: as §1
# P. aeruginosa NCTC 10662 = details: Pseudomonas aeruginosa, NCTC10662, 10^4 colony forming units, overnight at 37° C.
# Experimental: as §1
compound,measurement,setting,value
"CCN1CCN(C(=O)N[C@@H](C(=O)N[C@]2(NC=O)C(=O)N3C(C(=O)[O-])=C(C[n+]4ccc(C5CC5)cc4)CS[C@@H]32)c2ccccc2)C(=O)C1=O [Example 29, 3-(4-Cyclopropylpyridinium)methyl-7β-[D-2-[(4-ethyl-2,3-dioxopiperazin-1-yl)carbonylamino]-2-phenylacetamido]-7α-formamido-ceph-3-em-4-carboxylate]",MIC,E. coli DC 0,0.5 µg/mL
same,MIC,K. pneumoniae T767,1 µg/mL
same,MIC,P. aeruginosa NCTC 10662,8 µg/mL
"CCN1CCN(C(=O)NC(C(=O)NC2(NC=O)C(=O)N3C(C(=O)[O-])=C(C[n+]4cccc5c4CCC5)CSC32)c2ccc(O)c(O)c2)C(=O)C1=O [Example 3, 3-(2,3-Cyclopentenopyridinium)methyl-7β-[D-2-(3,4-dihydroxyphenyl)-2-[(4-ethyl-2,3-dioxopiperazin-1-yl)carbonylamino]acetamido]-7α-formamido-ceph-3-em-4-carboxylate]",MIC,E. coli DC 0,0.12 µg/mL
same,MIC,K. pneumoniae T767,0.12 µg/mL
same,MIC,P. aeruginosa NCTC 10662,1 µg/mL
"O=CN[C@@]1(NC(=O)Cc2cccs2)C(=O)N2C(C(=O)[O-])=C(C[n+]3ccccc3)CS[C@@H]21 [Compound A, 7α-formamido-3-(pyridiniummethyl)-7β-(thien-2-yl-acetamido)-ceph-3-em-4-carboxylate, reference compound]",MIC,E. coli DC 0,25 µg/mL
same,MIC,K. pneumoniae T767,25 µg/mL
same,MIC,P. aeruginosa NCTC 10662,50 µg/mL
